5 compounds from patent publication US12545677B2, “Compounds useful as factor XIa inhibitors” (JANSSEN PHARMACEUTICA NV, priority 2020, dated 2026) can be followed below.

The subject of one series is human hepatocytes. Description: In vitro metabolism in human cryopreserved hepatocytes. The format is in vitro ADME. The settings on record: positive control, 10 μM, 1×10^6 cells/mL, 3 hours. As for the experimental part:
In Vitro Metabolism of in Human Cryopreserved Hepatocytes
The human hepatocytes used for in vitro metabolism of the compound of formula (I-A) were purchased from Bioreclamation IVT (Westbury, NY); cryopreserved human hepatocytes (lot number: UYG).
Cryopreserved hepatocytes were rapidly thawed […] vials were placed in a 37° C. water bath for approximately 90 sec, then immediately added to pre-warmed hepatocyte thawing media. The cells were resuspended within the media and then centrifuged at 700×g for 7 minutes at room temperature.
The supernatant was discarded, and the cells were resuspended in 2 mL of Krebs-Henseleit buffer containing 12.5 mM HEPES pH 7.4 (KHB). Cell viability and yield were determined by Trypan Blue exclusion. The hepatocytes were then diluted in KHB to a cell concentration of 2×10^6 cells/mL (500 μL/well in 10 mL glass tubes). The tubes were placed on a rotary shaker in a humidifier incubator supplied with 5% CO2 and allowed 15 minutes acclimation at 37° C. prior to use. The compound of formula (I-A) or positive control, diclofenac (10 μM), in KHB was then added to the hepatocytes to achieve a final concentration of 10 μM and cell concentration of 1×10^6 cells/mL (1000 μL final incubation volume). Cells were incubated for zero or 3 hours. At the end of the incubation period, the cells were quenched with 6-volumes of ice-cold acetonitrile containing 0.02% formic acid, vortexed and sonicated (5 min). Precipitated proteins were pelleted by centrifugation (3000 rpm, 10 minutes, 4° C.) and the supernatant was transferred to borosilicate tubes and evaporated to dryness under a gentle stream of nitrogen.
The resulting residue after evaporation was reconstituted in 250 μL of water:acetonitrile (9:1 v/v) containing 0.01% formic acid with sonication and vortexing to aid solubilization of drug-derived materials prior to filtration using 0.45μ nylon filter at 10,000×g at room temperature for 10 minutes. The filtrate was transferred to a 96-well plate for liquid chromatography/ultraviolet/mass spectrometry (LC-UV/MS) analysis.
LC/UV/MS (Liquid Chromatography/Ultraviolet/Mass Spectrometry)
LTQ/Orbitrap (Thermo Scientific, Inc., Bremen, Germany) was carried out by data-dependent accurate mass measurements at resolving powers of 15,000 for full scan MS and 7,500 for MS^2 (also known as MS/MS or tandem mass spec) under single ion locked mass mode.
Quantification of the unchanged drug and its metabolites was carried out by integration of the individual chromatographically separated UV peaks and provided the percentage of total peak area.

In a further series the target is Factor XIa (Homo sapiens, UniProt P03951). Kind of series: Factor XIa inhibition assay using fluorophore-quencher pair peptide substrate. The series is classed as biochemical. From the text: Biological Example 1: Factor XIa Inhibition Assay
Using Fluorophore-quencher Pair Peptide Substrate
A fluorescence intensity-based assay was used to monitor inhibition of Factor XIa. The peptide substrate, 5Fam-[…]-K5Tamra (purchased from New England Peptide) was chosen based on the […]. Conversion of zymogen FIX to its activated form, FIXa, occurs by proteolytic cleavage by FXIa at two sites, Arg146 and Arg180. The custom peptide used in this assay was based on the Arg146 cleavage site. The peptide substrate was designed with a fluorophore-quencher pair, where the fluorescence is quenched until FXIa cleaves the 8-mer peptide after the Arg residue.
Factor XIa FLINT assay was used with the following 5Fam-[…]-K5Tamra assay buffer: 50 mM Tris, pH 7.5, 100 mM NaCl, 5 mM CaCl2, 0.1 mg/mL BSA, 0.03% CHAPS was used. Assay buffer was prepared by mixing all ingredients fresh. 2×5Fam-[…]-K5Tamra peptide substrate was first prepared in 100% DMSO, then diluted 10 mM to 3 mM in 100% DMSO. Assay buffer was then added directly to the 3 mM stock of substrate to prepare the 30 μM 2× working concentration (15 μM final concentration). The 2× Factor XIa stock solution was prepared by diluting 6.562 μM stock in 1× assay buffer for a 200 pM working stock solution (100 pM final concentration).
Test compound(s) were run in an 11-point, 3-fold serial dilution with a final top compound concentration of […]. Final DMSO in assay was 2% DMSO. FXIa and compound were pre-incubated for 30 minutes and substrate was then added to initiate the reaction. The assay was linear using 100 pM FXIa greater than 30 minutes. More specifically, the assay was run as follows: • 100 nL of 1 mM test compound was dispensed into a black 384-well non-binding Greiner BioOne 784900 plate for 10 μM final concentration with 1% DMSO final concentration; • 5 μL of 1× assay buffer was dispensed to column 24 (low control) and 5 μL 2× Factor XIa solution was dispensed to columns 1-23 (column 23 high control); • the plate was centrifuged with a “cover” plate at 500 rpm for 1 min • the plate was pre-incubated for 30 minutes at room temperature with plate covered; • 5 μL of 2× 5Fam-[…]-K5Tamra peptide substrate was dispensed into the entire plate, columns 1-24; • the plate was centrifuged with a cover plate at 500 rpm for 1 min; • the plate was read kinetically monitoring fluorescence intensity on the BMG PHERAStar at room temperature, using fluorescence module F1 485 mm/520 mm.
(§1) Percent inhibition (IC50) curves were generated per compound tested, and data was analyzed using a 4-parameter logistic fit using GeneData Screener. […]

The target of the next series is human plasma kallikrein (Homo sapiens, UniProt P03952). Description: Kallikrein inhibition assay utilizing quenched AMC peptide substrate. The format is biochemical. The note with it: read-out: Plasma kallikrein (PK) IC50. As for the experimental part: Biological Example 2: Kallikrein Inhibition Assay
Utilizing Quenched AMC Peptide Substrate
A fluorescence intensity-based assay was used to monitor inhibition of human plasma kallikrein. The peptide substrate, Z-Gly-Pro-Arg-AMC (Purchased from Bachem; Catalog #1-1150) was chosen based on its relatively low KM for kallikrein which enables running the assay at lower substrate concentrations to control background fluorescence. The kinetic parameters for this substrate were determined by fitting titration data to the Michaelis-Menten equation yielding a KM=40 μM, kcat=0.76 s^−1, and kcat/KM=18932 M^−1s^−1.
Kallikrein FLINT assay was used with the following Z-Gly-Pro-Arg-AMC assay buffer: 50 mM Tris, pH 7.5, 100 mM NaCl, 5 mM CaCl2, 0.1 mg/mL BSA, 0.03% CHAPS. Assay buffer was prepared by mixing all ingredients fresh. 2× Z-Gly-Pro-Arg-AMC peptide substrate was prepared by diluting 10 mM stock into 1× assay buffer for a 100 μM working concentration (50 μM final concentration). The 2× kallikrein stock solution was prepared by diluting 14.76 μM stock in 1× assay buffer for a 4 nM working stock solution (2 nM final concentration).
Test compound(s) were run in an 11-point, 3-fold serial dilution with a final top compound concentration of 1 μM. Final DMSO in assay: 2% DMSO. 2 nM kallikrein and test compound were pre-incubated for 30 minutes and 50 μM substrate was then added to initiate the reaction. The assay was linear using 2 nM kallikrein greater than 30 minutes. More specifically, the assay was run as follows: • 100 nL of 1 mM test compound was dispensed into a black 384-well non-binding Greiner BioOne 784900 plate for 10 μM final concentration with 1% DMSO final concentration; • 5 μL of 1× assay buffer was dispensed to columns 24 (low control) and 5 μL 2× human kallikrein enzyme solution was dispensed to columns 1-23 (column 23 high control); • the plate was centrifuged with a cover plate at 500 rpm for 1 min • the plate was pre-incubated for 30 minutes at room temperature with plate covered; • 5 μL of 2× Z-Gly-Pro-Arg-AMC peptide substrate was dispensed into the entire plate, columns 1-24; • the plate was centrifuged with a “cover” plate at 500 rpm for 1 min; • the plate was read kinetically monitoring fluorescence intensity on the BMG PHERAStar at room temperature, using fluorescence module F1 340 mm/440 mm.
as §1

Factor XIa, sequence (P03951 388-625 limits assumed): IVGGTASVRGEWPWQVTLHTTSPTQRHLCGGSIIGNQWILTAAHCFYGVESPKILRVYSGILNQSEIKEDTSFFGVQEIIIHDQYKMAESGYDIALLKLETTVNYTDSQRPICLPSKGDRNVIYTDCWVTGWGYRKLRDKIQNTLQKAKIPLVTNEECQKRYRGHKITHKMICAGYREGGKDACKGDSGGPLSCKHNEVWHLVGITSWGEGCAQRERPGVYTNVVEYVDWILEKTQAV
Factor XIa, sequence (P03951 19-387 partner limits assumed): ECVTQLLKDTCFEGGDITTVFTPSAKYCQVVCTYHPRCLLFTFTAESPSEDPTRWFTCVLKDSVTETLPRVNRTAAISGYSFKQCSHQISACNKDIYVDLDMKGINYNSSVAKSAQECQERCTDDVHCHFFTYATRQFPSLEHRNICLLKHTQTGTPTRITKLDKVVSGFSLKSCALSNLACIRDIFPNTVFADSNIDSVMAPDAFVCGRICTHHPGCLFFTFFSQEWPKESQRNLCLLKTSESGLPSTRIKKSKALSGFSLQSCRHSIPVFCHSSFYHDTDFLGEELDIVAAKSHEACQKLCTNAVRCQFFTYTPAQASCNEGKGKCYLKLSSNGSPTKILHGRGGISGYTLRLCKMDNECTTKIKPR
human plasma kallikrein, sequence (P03952 391-638 limits assumed): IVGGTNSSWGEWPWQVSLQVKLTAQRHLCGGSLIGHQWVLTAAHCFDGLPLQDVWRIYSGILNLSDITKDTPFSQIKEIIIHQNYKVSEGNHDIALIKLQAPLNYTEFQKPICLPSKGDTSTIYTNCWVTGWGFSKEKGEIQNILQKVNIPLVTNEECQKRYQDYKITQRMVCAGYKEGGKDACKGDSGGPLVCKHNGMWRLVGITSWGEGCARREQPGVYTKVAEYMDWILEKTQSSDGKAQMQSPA
human plasma kallikrein, sequence (P03952 20-390 partner limits assumed): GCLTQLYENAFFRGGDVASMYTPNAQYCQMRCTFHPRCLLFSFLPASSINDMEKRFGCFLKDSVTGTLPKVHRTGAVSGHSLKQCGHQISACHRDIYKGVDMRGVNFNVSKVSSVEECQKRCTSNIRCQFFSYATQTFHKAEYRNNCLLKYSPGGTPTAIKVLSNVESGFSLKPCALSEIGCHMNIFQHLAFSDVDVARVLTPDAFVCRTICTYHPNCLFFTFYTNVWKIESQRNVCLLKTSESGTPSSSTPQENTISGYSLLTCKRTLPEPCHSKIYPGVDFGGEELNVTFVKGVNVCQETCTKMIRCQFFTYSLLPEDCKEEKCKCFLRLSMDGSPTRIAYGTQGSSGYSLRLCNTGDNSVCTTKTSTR

For the compound `O=C(O)Cc1ccccc1Nc1c(Cl)cccc1Cl` [diclofenac, reference compound], the “turnover from human hepatocytes” value with human hepatocytes was determined as 89%. In general, IC50 refers to the concentration that gives 50% inhibition. Compound `[2H]C1([2H])C[C@@H](c2ncc(-c3ccnc(CO)c3F)[nH]2)N2C(=O)C=C(c3c(-n4cnnn4)ccc(Cl)c3F)C([2H])([2H])[C@]21[2H]` (single isomer, unassigned) [Compound of formula (I-G)] yielded an IC50 at Factor XIa of 3.9 nM. As for `[2H]c1nnnn1-c1ccc(Cl)c(F)c1C1=CC(=O)N2[C@@H](CC[C@@H]2c2ncc(-c3ccnc(C([2H])([2H])O)c3F)[nH]2)C1` (stereo in doubt) [Compound of formula (I-J), (3R,8aS)-7-(3-Chloro-2-fluoro-6-(1H-tetrazol-1-yl-d)phenyl)-3-(4-(3-fluoro-2-(hydroxymethyl-d2)pyridin-4-yl)-1H-imidazol-2-yl)-2,3,8,8a-tetrahydroindolizin-5(1H)-one], the figures for the IC50 on human plasma kallikrein and on Factor XIa were 32 nM and 4.1 nM, respectively. With `[2H]C1([2H])C(c2c(-n3cnnn3)ccc(Cl)c2F)=CC(=O)N2[C@H](c3ncc(-c4ccnc(CO)c4F)[nH]3)CC[C@@]21[2H]` (single isomer, unassigned) [Compound of formula (I-K)], on human plasma kallikrein, the IC50 is 9.7 nM. Consider `[2H]C([2H])(O)c1nccc(-c2cnc([C@@H]3CCC4([2H])CC(c5c(-n6cnnn6)ccc(Cl)c5F)=CC(=O)N34)[nH]2)c1F` (single isomer, unassigned) [Compound of formula (I-F), (3S,8aR*)-7-(3-Chloro-2-fluoro-6-(1H-tetrazol-1-yl)phenyl)-3-(5-(3-fluoro-2-(hydroxymethyl-d2)pyridin-4-yl)-1H-imidazol-2-yl)-2,3,8,8a-tetrahydroindolizin-5(1H)-one-8a-d], for which the IC50 was 34 nM at human plasma kallikrein and 5.1 nM against Factor XIa.
